Assay results taken from patent US9688651B2, “Geranyl geranyl acetone analogs and uses thereof” (NYKEN Holding B.V., priority 2012, dated 2017).

Legend:
[1] = system: MCF-7 breast cancer cells; test: MCF-7 cell death, ratio death/living cells (trypan blue); type: cell-based, human; parameters: key to Cell Death MCF-7 cancer cells Death/living 100 μM: 0 = no dead cells; + = P < 0.05; ++ = P < 0.01; +++ = P < 0.001; conditions: 100 μM; 16-20 hours; trypan blue
Experimental: MCF-7 breast cancer cells were cultured in DMEM supplemented with 10% FCS. […] Ratio death and living cells was determined by using trypan blue staining of death cells. The cell pellets were lysed in RIPA buffer and used for Western blot analysis.
Since we observed that some compounds aggravate tachypacing-induced contractile dysfunction, we next investigated if these compounds can induce programmed cell death in a human breast cancer cell-line MCF-7. […] In total 28 compounds were tested for cell death. […] GGA was used as a control as well as non-treated MCF-7 cells. […] The findings indicate that GGA-like compounds which aggravate heart failure can induce programmed cell death in MCF-7 breast cancer cell-line.

HSP27 = HSP27 Western blot in MCF-7 cells; type: cell-based, human; parameters: key: + = P < 0.05; ++ = P < 0.01; +++ = P < 0.001; conditions: MCF-7 lysate, 16-20 hours
Experimental: (§1) MCF-7 breast cancer cells were cultured in DMEM supplemented with 10% FCS. Test compounds were added to the medium in a final concentration of […] for 16-20 hours. Ratio death and living cells was determined by using trypan blue staining of death cells. The cell pellets were lysed in RIPA buffer and used for Western blot analysis.
(§2) Western-blot analysis was performed as described previously^3, 10. Equal amount of protein in SDS-PAGE sample buffer was sonicated before separation on 10% PAA-SDS gels. After transfer to nitrocellulose membranes (Stratagene, The Netherlands), membranes were incubated with primary antibodies against HSP25 (Stressgen, The Netherlands, SPA-801, 1:1000), HSP27 (Stressgen, SPA-800, 1:1000), HSP70 (Stressgen, SPA-810, 1:1000), GAPDH (Affinity Reagents, The Netherlands) or PARP (Santa Cruz, The Netherlands, sc-7150, 1:500). Horseradish peroxidase-conjugated anti-mouse or anti-rabbit (Santa-Cruz Biotechnology, The Netherlands) was used as secondary antibody. Signals were detected by the ECL-detection method (Amersham, The Netherlands) and quantified by densitometry using GeneTools software from Syngene (The Netherlands).

HSP70 [2] = test: HSP70 Western blot in MCF-7 cells; type: cell-based, human; parameters: key: + = P < 0.05; ++ = P < 0.01; +++ = P < 0.001; conditions: MCF-7 lysate, 16-20 hours
Experimental: as §1, §2

HSP40 = HSP40 mRNA (qPCR) in HL-1 cardiomyocytes after mild heat shock; type: cell-based, mouse; conditions: then compound 10 μM for 6 hours
Experimental: (§3) HL-1 cardiomyocytes were subjected to a mild heat shock of 44° C. for 10 minutes. After a recovery of 10 minutes (37 degrees 5% CO2), compounds were added in a final concentration of 10 μM (dissolved in DMSO, final concentration 0.1%). To control myocytes, 0.1% DMSO was added. After six hours the cells were lysed in RIPA buffer and used for Western blotting as described previously.^3, 10 Compounds were also screened for their ability to upregulate HSP gene expression. Hereto, HL-1 cardiomyocytes were first subjected to a mild heat shock which activates the Heat Shock Factor. After the mild heat shock, compound (10 μM) was added to the medium of HL-1 cardiomyocytes for 6 hours, followed by determination of HSP70, HSP25, HSP90 and HSP40 which are targets of the heat shock factor 1 (HSF1) transcription factor. In addition, we determined mRNA levels of the gene encoding the glucose-responsive protein 78 (Grp78) which is HSF1-independent.

HSP70 [3] = test: Hsp70 induction in murine proximal tubule (MPT) cells (Western blot); type: cell-based; conditions: 40 μM, 5 hours, outperformed positive control GGA
Experimental: Murine proximal tubule (MPT) cells were isolated and cultured as described previously (Borkan et al. Heat stress ameliorates ATP depletion-induced sublethal injury in mouse proximal tubule cells. Am. J. Physiol. 1997; F347-55).
The MPT cells were exposed to 40 μM of compound for 5 hours, after which the cells were harvested in RIPA buffer followed by Western blotting.
For Western-blot analysis, equal amount of protein in SDS-PAGE sample buffer was separated on 10% PAA-SDS gels. After transfer to nitrocellulose membranes (Stratagene, USA), membranes were incubated with primary antibodies against HSP70 (Enzo C92F3A/StressGen SP810) or beta-actin (Sigma A541). Horseradish peroxidase-conjugated anti-mouse or anti-sheep (Jackson ImmunoRes) was used as secondary antibody. Signals were detected by the ECL-detection method (Amersham).

[4] = system: HSP70, HSP25, HSP90 and HSP40; test: Upregulation of HSP gene expression (HSF1 targets) in HL-1 cardiomyocytes; type: cell-based, mouse; conditions: HL-1, mild heat shock, 10 μM, 6 hours
Experimental: as §3

PARP = PARP cleavage in MCF-7 cells (Western blot); type: cell-based, human; parameters: key to Cell Death MCF-7 cancer cells PARP: 0 = no dead cells; + = P < 0.05; ++ = P < 0.01; +++ = P < 0.001; conditions: MCF-7 lysate, Western blot, 16-20 hours
Experimental: as §1, §2
Since we observed that some compounds aggravate tachypacing-induced contractile dysfunction, we next investigated if these compounds can induce programmed cell death in a human breast cancer cell-line MCF-7. Hereto, MCF-7 cells were incubated for 16 hours with 10 μM of a test compound after which the number of death and living cells was determined. In total 28 compounds were tested for cell death. […] GGA was used as a control as well as non-treated MCF-7 cells. […] The findings indicate that GGA-like compounds which aggravate heart failure can induce programmed cell death in MCF-7 breast cancer cell-line.

HSP70 [5] = test: HSP70 protein boosting in HL-1 cardiomyocytes after mild heat shock (Western blot); type: cell-based, mouse; conditions: for induction of mammalian HSP70 protein expression: HL-1, mild heat shock, 10 μM, 6 hours; for HSP boosting HL-1 cardiomyocytes Protein HSP70: mild heat shock 44°C 10 min, then compound 10 μM for 6 hours, Western blot
Experimental: HL-1 atrial myocytes, a cell line derived from adult mouse atria were obtained from Dr. William Claycomb (Louisiana State University, New Orleans, La., USA). The myocytes were maintained in Complete Claycomb Medium (JRH, UK) supplemented with 100 μM norepinephrine stock (consisting of 10 mM norepinephrine (Sigma, The Netherlands) dissolved in 0.3 mM L-ascorbic acid (Sigma)), 4 mM L-glutamine (Gibco, The Netherlands) and 10% FBS (Sigma). The myocytes were cultured in flasks coated with 0.02% gelatin (Sigma), in a 5% CO2 atmosphere at 37° C.
HL-1 cardiomyocytes were subjected to a mild heat shock of 44° C. for 10 minutes. After a recovery of 10 minutes (37 degrees 5% CO2), compounds were added in a final concentration of 10 μM (dissolved in DMSO, final concentration 0.1%). To control myocytes, 0.1% DMSO was added. After six hours the cells were lysed in RIPA buffer and used for Western blotting as described previously.^3, 10
as §2
Compounds were also screened for HSP70 boosting effects. Hereto, HL-1 cardiomyocytes were first subjected to a mild heat shock which activates the Heat Shock Factor. After the mild heat shock, compound (10 μM) was added to the medium of HL-1 cardiomyocytes for 6 hours, followed by determination of the HSP70 amount.

HSP25 = HSP25 mRNA (qPCR) in HL-1 cardiomyocytes after mild heat shock; type: cell-based, mouse; parameters: key: 0 = no induction HSP levels; + = 2-10-fold induction; ++ = 10-30-fold induction; +++ = > 30-fold induction; conditions: then compound 10 μM for 6 hours
Experimental: as §3

[6] = system: glucose-responsive protein 78 (Grp78); test: Grp78 mRNA (qPCR, HSF1-independent) in HL-1 cardiomyocytes; type: cell-based, mouse; parameters: key to HSP boosting HL-1 cardiomyocytes mRNA (qPCR) Grp78 Not HSF1: 0 = no induction HSP levels; + = 2-10-fold induction; ++ = 10-30-fold induction; +++ = > 30-fold induction; conditions: for upregulation of Grp78 mRNA: HL-1, mild heat shock, 10 μM, 6 hours; for HSP boosting HL-1 cardiomyocytes mRNA (qPCR) Grp78 Not HSF1: mild heat shock, then compound 10 μM for 6 hours
Experimental: as §3

HSP90 = HSP90 mRNA (qPCR) in HL-1 cardiomyocytes after mild heat shock; type: cell-based, mouse; conditions: then compound 10 μM for 6 hours
Experimental: as §3

HSP70 [7] = test: HSP70 mRNA (qPCR) in HL-1 cardiomyocytes after mild heat shock; type: cell-based, mouse; conditions: then compound 10 μM for 6 hours
Experimental: as §3

Row | Compound | Cell Death MCF-7 cancer cells Death/living 100 μM [1] | Cell Death MCF-7 cancer cells HSP 27 (HSP27) | Cell Death MCF-7 cancer cells HSP 70 (HSP70 [2]) | HSP boosting HL-1 cardiomyocytes mRNA (qPCR) HSP 40 (HSP40) | induction of HSP70 expression in renal (MPT) cells (HSP70 [3]) | induction of HSP gene expression [4] | Cell Death MCF-7 cancer cells PARP (PARP) | induction of mammalian HSP70 protein expression (HSP70 [5]) | HSP boosting HL-1 cardiomyocytes mRNA (qPCR) HSP 25 (HSP25) | upregulation of Grp78 mRNA [6] | HSP boosting HL-1 cardiomyocytes mRNA (qPCR) Grp78 Not HSF1 [6] | HSP boosting HL-1 cardiomyocytes mRNA (qPCR) HSP 90 (HSP90) | HSP boosting HL-1 cardiomyocytes mRNA (qPCR) HSP 70 (HSP70 [7]) | HSP boosting HL-1 cardiomyocytes Protein HSP70 (HSP70 [5])
1 | CC(C)=CCC/C(C)=C/CNS(C)(=O)=O [Compound 51, (E)-N-(3,7-Dimethylocta-2,6-dien-1-yl)methanesulfonamide] | 0 | ++ (++ = P < 0.01) | + (+ = P < 0.05) | + (+ = 2-10-fold induction) | strong inducers | strong inducers | 0 | potent inducers | + (+ = 2-10-fold induction) | no upregulation | 0 | + (+ = 2-10-fold induction) | + (+ = 2-10-fold induction) | 
2 | CC(C)=CCC/C(C)=C/CNC(=O)CCC(=O)O [Compound 46] |  |  |  | + (+ = 2-10-fold induction) | strong inducers | strong inducers |  | potent inducers | ++ (++ = 10-30-fold induction) | no upregulation | 0 | ++ (++ = 10-30-fold induction) | + (+ = 2-10-fold induction) | ++ (++ = 10-30-fold induction)
3 | CC(=O)CC(=O)CC/C=C(\C)CCC=C(C)C [Compound 28, (E)-8,12-Dimethyltrideca-7,11-Diene-2,4-Dione] | 0 | ++ (++ = P < 0.01) | 0 | + (+ = 2-10-fold induction) |  | strong inducers | 0 | potent inducers | + (+ = 2-10-fold induction) | no upregulation | 0 | + (+ = 2-10-fold induction) | + (+ = 2-10-fold induction) | 
4 | CCOC(=O)C(C/C=C(\C)CCC=C(C)C)C(=O)c1ccccc1O (centres unmarked) [Compound 61, (E)-Ethyl 2-(2-hydroxybenzoyl)-5,9-dimethyldeca-4,8-dienoate] | 0 | 0 | 0 | + (+ = 2-10-fold induction) | strong inducers | strong inducers | 0 | potent inducers | + (+ = 2-10-fold induction) | no upregulation | 0 | + (+ = 2-10-fold induction) | + (+ = 2-10-fold induction) | ++ (++ = 10-30-fold induction)
5 | CC(C)=CCC/C(C)=C/CNS(=O)(=O)C(F)(F)F [Compound 52] |  |  |  | + (+ = 2-10-fold induction) | strong inducers | strong inducers |  | potent inducers | + (+ = 2-10-fold induction) | no upregulation | 0 | + (+ = 2-10-fold induction) | + (+ = 2-10-fold induction) | 
6 | CC(C)=CCC/C(C)=C/CCc1cc(O)n[nH]1 [Compound 62, (E)-5-(4,8-dimethylnona-3,7-dien-1-yl)-1H-pyrazol-3-ol] |  |  |  | + (+ = 2-10-fold induction) | strong inducers | strong inducers |  | potent inducers | 0 | no upregulation | 0 | + (+ = 2-10-fold induction) | + (+ = 2-10-fold induction) | ++ (++ = 10-30-fold induction)
